These results are taken from patent US20150359795A1, “HIGH DRUG LOAD PHARMACEUTICAL COMPOSITIONS WITH CONTROLLABLE RELEASE RATE AND PRODUCTION METHODS THEREOF” (Pharmosa Limited, priority 2014, published 2015).

The structures appear in SMILES notation. Structures can show the parent of a compound that is named as a salt. Where only a bound is given, the exact number is not on record here.

The nature of data set [1]: Viscosity of saturated or unsaturated aqueous solutions of APIs, rotational viscometer (Brooksfield). In kind it is physicochemical. Here is the method: The viscosities of saturated aqueous solutions or aqueous solutions with different weight percentage are measured with Rotational viscometers (Brooksfield, USA) at constant temperature 25° C., and the rotation speed is 5-100 rpm.
(§1) The viscosities of saturated aqueous solutions or aqueous solutions with different weight percentage of the compounds are measured with Rotational viscometers (Brooksfield, USA) at 25° C.

Data set [2] in a line: Tablet-forming ability of APIs (self-granulation with water, hardness and friability of tablets). The note with it: tablets of 99% API and 1% magnesium stearate, about 100 mg; for The tablet-forming ability Hardness of tablets (kp): wet granulated with purified water. In kind it is physicochemical. How it is done: as §1
Each API listed in Table 1-1 is separately weighed […] and wet granulated in a high shear mixer using purified water. The wet granules are dried in an oven and sieved with 20 mesh screen. Each of the dried granules is separately transferred into a V-blender, and mixed with 5 g of magnesium stearate. The obtained mixture is compressed into tablets. Every tablet weighs about 100 mg, and contains magnesium stearate and an individual API.

For data set [3] the following is noted: prior art formulation with lactose, microcrystalline cellulose, crospovidone, magnesium stearate; cited from earlier work.

Regarding `CCN1CCCC1CNC(=O)c1cc(S(N)(=O)=O)ccc1OC` (stereo not shown) [Sulpiride], the “Saturated aqueous solution at 25° C. Viscosity (cP)” value in data set [1] is recorded as ~2 cP.
With `CCCCCCCCOc1ccccc1C(=O)Nc1ccc(C(=O)OCC[N+](C)(CC)CC)cc1` [Otilonium bromide], in data set [1] (weight percent 10%), the “Unsaturated aqueous solution at 25° C. Viscosity (cP)” value (shortened to “Unsaturated aqueous solution”) is given as ~12 cP. Moreover, in data set [1], the “Saturated aqueous solution at 25° C. Viscosity (cP)” value is listed as ~540 cP. Also, in data set [2], the “The tablet-forming ability Friability of tablets (%)” value is <0.1% and the “The tablet-forming ability Hardness of tablets (kp)” value (“The tablet-forming ability Hardness” below) is 3-8 kp. Moreover, the “drug dissolved in 5 minutes in vitro” value in data set [3] is recorded as “more than 90%”.
In the case of `NS(=O)(=O)c1cc2c(cc1Cl)NCNS2(=O)=O` [Hydrochlorothiazide], in data set [1], the “Saturated aqueous solution at 25° C. Viscosity (cP)” value was ~1 cP.
Same read-out and setting: to `CN(C)C(=N)N=C(N)N` [Metformin HCl] belongs ~2 cP.
For `Cc1ccc(NC(=O)c2ccc(CN3CCN(C)CC3)cc2)cc1Nc1nccc(-c2cccnc2)n1` [Imatinib mesylate], the “Unsaturated aqueous solution” value in data set [1] (weight percent 25%) is listed as ~15 cP. The “Saturated aqueous solution at 25° C. Viscosity (cP)” value in data set [1] is given as ~1100 cP. Also, in data set [2], the “The tablet-forming ability Friability of tablets (%)” value is reported as <0.1% and the “The tablet-forming ability Hardness” value is on record as 3-8 kp.
For `COc1cc2nc(N(C)CCCNC(=O)C3CCCO3)nc(N)c2cc1OC` (stereo not shown) [Alfuzosin HCl], the “Unsaturated aqueous solution” value in data set [1] (weight percent 30%) was ~10 cP. For the same compound, the “Saturated aqueous solution at 25° C. Viscosity (cP)” value in data set [1] is given as ~170 cP. In addition, in data set [2], the “The tablet-forming ability Friability of tablets (%)” value is given as <0.1% and the “The tablet-forming ability Hardness” value is listed as 3-8 kp.
